Results on 11 compounds are retold here after patent EP0085870A1, “Dibenz(b,e)oxepin derivatives and pharmaceutical compositions containing them” (KYOWA HAKKO KOGYO CO., LTD, priority 1982, dated 1983).

One data set has as its system male dd-strain mice. Put plainly: Acute toxicity test. It is filed as in vivo. As to conditions: mortality for 7 days after administration. How it is done: Groups of male dd-strain mice (each croup consisting of five mice) weighing 20 + 1 g are used. Compound I are administered orally (po : 0.3 mg/g) or intraperitoneally (ip : 0.1 mg/g). The MLD lethal dose) is calculated from the mortality for 7 days after the administration to obtain the results given in Table 1.

The next data set concerns PCA response. Put plainly: Antiasthmatic activity test: passive cutaneous anaphylaxis response (PCA response). It is filed as in vivo, Wistar strain male rats. As to conditions: Rattus norvegicus, rats; for minimal effective dose: po, minimum effective dose, depressing ratio of 50% or more counts as positive, read-out: MED; for inhibition in vivo at 50 mg/kg: Dose 50 mg/Kg PO; for inhibition in vivo at 100 mg/kg: Dose 100 mg/Kg PO; for inhibition in vivo at 2.5 mg/kg: Dose 2.5 mg/Kg PO; for inhibition in vivo at 5 mg/kg: Dose 5 mg/Kg PO; for inhibition in vivo at 10 mg/kg: Dose 10 mg/Kg PO; for inhibition in vivo at 25 mg/kg: Dose 25 mg/Kg PO. How it is done:
Antiasthmatic activity is evaluated according to passive cutaneous anaphylaxis response (PCA response). Antiserum is collected from Wistar strain male rats weighing 200 to 250 g. PCA response is evaluated using Wistar strain male rats weighing 100 to 120 g.
One mg of egg albumin is dissolved in 0.5 ml of pertussisdiphtheria mixed vaccine, and the resulting solution is mixed with 0.5 ml of incomplete adjuvant. The resulting emulsion is used as antigen and administered to rats subcutaneously through the sole. On the 12th day after the administration, heads of the rats are cut to collect blood. Thus, antiserum is prepared.
Upon evaluating antiasthmatic activity, concentration of the antiserum is adjusted so that diameter of blue-dyed portion is about 8 to about 10 mm.
Six rats are used per group. 0.05 ml of the antiserum is intracutaneously administered to each of the previously back-shaved rats to sensitize. After 17 hours, compound I or the solutions thereof (physiological salt solution or CMC solution) are respectively administered and, after 60 minutes, an antigen mixture (1% Evans' Blue physiological salt solution containing 0.2% egg albumin) is injected intravenously in an amount of 0.5 ml/100 g to induce PCA. response. After 30 minutes, rats are choked to death followed by cutting out skin to measure the diameter of blue-dyed portion. The results are evaluated by awarding a score according to the diameter of blue―dved portion. Furthermore, ratios of the diameters to that of solvent (psysiological salt solution or CMC) administered group are snowing a depressing ratio of 50% or more calculated according to the following formula are concluded to show positive antiasthmatic activity. Also, the minimum effective dose (MED) is determined from the results with respective doses to compare the strength of entrasthamatis activity.

[1] abbreviates: given 60 minutes before antigen, read-out: depressing ratio.

`CCN(CC)CCSC1c2ccccc2COc2c(C)cccc21` (stereo not drawn) [Compound 3, 4-methyl-11-[2-(diethylamino)ethyl]thio-6,11-dihydrodibenz[b,e]oxepin] had an MLD in the data set with male dd-strain mice (ip) of over 100 mg/kg. Moreover, in the data set on male dd-strain mice (po), the MLD was over 300 mg/kg. In the data set with PCA response, the minimal effective dose was determined as 100 mg/kg. Moreover, in the data set with PCA response (setting [1]), the inhibition in vivo at 50 mg/kg was determined as 14% and the inhibition in vivo at 100 mg/kg came to 52%.
In turn, `CCc1ccc2c(c1)C(SCCN(C)C)c1ccccc1CO2` (stereo not drawn) [Compound 7, 2-ethyl-11-[2-(dimethylamino)ethyl]thio-6,11-dihydrodibenz[b,e]oxepin] showed an MLD in the data set on male dd-strain mice (ip) of over 100 mg/kg. This compound also yielded an MLD in the data set with male dd-strain mice (po) of over 300 mg/kg. In addition, in the data set with PCA response, the minimal effective dose stood at 5 mg/kg. In addition, in the data set on PCA response (setting [1]), the inhibition in vivo at 2.5 mg/kg is 30%, the inhibition in vivo at 5 mg/kg is 81%, the inhibition in vivo at 10 mg/kg was 100% and the inhibition in vivo at 25 mg/kg came to 100%. In the data set with PCA response (setting [1]), the inhibition in vivo at 50 mg/kg was 100% and the inhibition in vivo at 100 mg/kg amounted to 100%.
Compound `Cc1ccc2c(c1)OCc1ccccc1C2SCCN(C)C` (stereo not drawn) [Compound 11, 3-methyl-11-[2-(dimethylamino)ethyl]thio-6,11-dihydrodibenz[b,e]oxepin] returned an MLD in the data set with male dd-strain mice (ip) of over 100 mg/kg. The compound also displayed an MLD in the data set on male dd-strain mice (po) of over 300 mg/kg. In addition, the minimal effective dose in the data set on PCA response came out at 50 mg/kg. Besides, in the data set on PCA response (setting [1]), the inhibition in vivo at 10 mg/kg was determined as 0%, the inhibition in vivo at 25 mg/kg is 28%, the inhibition in vivo at 50 mg/kg turned out to be 61% and the inhibition in vivo at 100 mg/kg amounted to 61%.
For `CCN(CC)CCSC1c2ccccc2COc2ccc(C)cc21` (stereo not drawn) [Compound 2, 2-methyl-11-[2-(diethylamino)ethyl]thio-6,11-dihydrodibenz[b,e]oxepin], the MLD in the data set on male dd-strain mice (ip) is over 100 mg/kg. Further, the MLD in the data set on male dd-strain mice (po) was over 300 mg/kg. For the same compound, the minimal effective dose in the data set with PCA response came out at 10 mg/kg. For the same compound, in the data set with PCA response (setting [1]), the inhibition in vivo at 2.5 mg/kg amounted to 20%, the inhibition in vivo at 5 mg/kg is 40%, the inhibition in vivo at 10 mg/kg was found to be 52% and the inhibition in vivo at 25 mg/kg is 100%. For the same compound, in the data set with PCA response (setting [1]), the inhibition in vivo at 50 mg/kg turned out to be 100% and the inhibition in vivo at 100 mg/kg was 100%.
In the data set on male dd-strain mice (ip), `CC(C)N(CCSC1c2ccccc2COc2ccc(F)cc21)C(C)C` (stereo not drawn) [Compound 10, 2-fluoro-11-[2-(diisopropylamino)ethyl]thio-6,11-dihydrodibenz[b,e]oxepin] came in with an MLD of over 100 mg/kg. Also, in the data set with male dd-strain mice (po), the MLD is over 300 mg/kg. Also, the minimal effective dose in the data set with PCA response is 100 mg/kg. Besides, in the data set with PCA response (setting [1]), the inhibition in vivo at 10 mg/kg amounted to 0%, the inhibition in vivo at 25 mg/kg came to 11%, the inhibition in vivo at 50 mg/kg is 11% and the inhibition in vivo at 100 mg/kg worked out at 73%.
In the data set on male dd-strain mice (ip), `CCc1ccc2c(c1)C(SCCN(CC)CC)c1ccccc1CO2` (stereo not drawn) [Compound 5, 2-ethyl-11-[2-(diethylamino)ethyl]thio-6,11-dihydrodibenz[b,e]oxepin] gave an MLD of 100 mg/kg. In the data set on male dd-strain mice (po), this compound registered an MLD of over 300 mg/kg. Further, in the data set on PCA response, the minimal effective dose came out at 10 mg/kg. Further, in the data set on PCA response (setting [1]), the inhibition in vivo at 5 mg/kg was determined as 36%, the inhibition in vivo at 10 mg/kg is 56%, the inhibition in vivo at 25 mg/kg is 100% and the inhibition in vivo at 50 mg/kg was found to be 100%. Further, the inhibition in vivo at 100 mg/kg with PCA response (setting [1]) was found to be 100%.
As to `CCN(CC)CCSC1c2ccccc2COc2ccc(F)cc21` (stereo not drawn) [Compound 6, 2-fluoro-11-[2-(diethylamino)ethyl]thio-6,11-dihydrodibenz[b,e]oxepin], the MLD in the data set on male dd-strain mice (ip) was over 100 mg/kg. The MLD in the data set with male dd-strain mice (po) was over 300 mg/kg. Besides, the minimal effective dose with PCA response amounted to 25 mg/kg. In the data set on PCA response (setting [1]), the inhibition in vivo at 10 mg/kg worked out at 3%, the inhibition in vivo at 25 mg/kg came to 84%, the inhibition in vivo at 50 mg/kg came out at 100% and the inhibition in vivo at 100 mg/kg worked out at 100%.
Regarding `CCc1ccc2c(c1)C(SCCN(C(C)C)C(C)C)c1ccccc1CO2` (stereo not drawn) [Compound 9, 2-ethyl-11-[2-(diisopropylamino)ethyl]thio-6,11-dihydrodibenz[b,e]oxepin], the MLD in the data set with male dd-strain mice (ip) is over 100 mg/kg. This compound showed an MLD in the data set with male dd-strain mice (po) of over 300 mg/kg. For the same compound, the minimal effective dose with PCA response is 25 mg/kg. Also, in the data set with PCA response (setting [1]), the inhibition in vivo at 10 mg/kg worked out at 22%, the inhibition in vivo at 25 mg/kg worked out at 67%, the inhibition in vivo at 50 mg/kg turned out to be 100% and the inhibition in vivo at 100 mg/kg was found to be 100%.
`Cc1ccc2c(c1)C(SCCN(C)C)c1ccccc1CO2` (stereo not drawn) [Compound 1, 2-methyl-11-[2-(dimethylamino)ethyl]thio-6,11-dihydrodibenz[b,e]oxepin] had an MLD in the data set on male dd-strain mice (ip) of over 100 mg/kg. Moreover, the MLD in the data set with male dd-strain mice (po) was over 300 mg/kg. Also, the minimal effective dose with PCA response stood at 2.5 mg/kg. For the same compound, the inhibition in vivo at 1 mg/kg with PCA response (Dose 1 mg/Kg PO, given 60 minutes before antigen, read-out: depressing ratio) worked out at 49%. Also, in the data set with PCA response (setting [1]), the inhibition in vivo at 2.5 mg/kg turned out to be 81%, the inhibition in vivo at 5 mg/kg was 100%, the inhibition in vivo at 10 mg/kg turned out to be 100% and the inhibition in vivo at 25 mg/kg was 100%. Further, in the data set on PCA response (setting [1]), the inhibition in vivo at 50 mg/kg turned out to be 100% and the inhibition in vivo at 100 mg/kg stood at 100%.
In the data set on male dd-strain mice (ip), `CCN(CC)CCSC1c2ccccc2COc2ccc(Cl)cc21` (stereo not drawn) [Compound 4, 2-chloro-11-[2-(diethylamino)ethyl]thio-6,11-dihydrodibenz[b,e]oxepin] returned an MLD of over 100 mg/kg. In the data set with male dd-strain mice (po), this compound had an MLD of over 300 mg/kg. Also, the minimal effective dose with PCA response is 50 mg/kg. Further, in the data set with PCA response (setting [1]), the inhibition in vivo at 10 mg/kg is 10%, the inhibition in vivo at 25 mg/kg worked out at 46%, the inhibition in vivo at 50 mg/kg was found to be 100% and the inhibition in vivo at 100 mg/kg is 100%.
`CN(C)CCSC1c2ccccc2COc2ccc(F)cc21` (stereo not drawn) [Compound 8, 2-fluoro-11-[2-(dimethylamino)ethyl]thio-6,11-dihydrodibenz[b,e]oxepin]: in the data set on male dd-strain mice (ip), the MLD was over 100 mg/kg. In the data set on male dd-strain mice (po), this compound registered an MLD of over 300 mg/kg. Moreover, the minimal effective dose with PCA response amounted to 25 mg/kg. Moreover, in the data set with PCA response (setting [1]), the inhibition in vivo at 5 mg/kg is 23%, the inhibition in vivo at 10 mg/kg was determined as 33%, the inhibition in vivo at 25 mg/kg stood at 100% and the inhibition in vivo at 50 mg/kg came to 100%. The inhibition in vivo at 100 mg/kg with PCA response (setting [1]) came out at 100%.
